In patent publication US20230346735A1, “Nutritional Composition Comprising Carnitine and Method for Treating or Preventing an Infection in a Mammal” (priority 2020, published 2023):

Key:
TMPRSS2 [1] = assay: TMPRSS2 protein and mRNA in rat tissue samples; assay type: in vivo; conditions: exercised rats
Excerpt: (§1) After a week of the adaptation period, the rats were divided into eight equal groups containing seven rats each. The initial body weights of the rats were similar in all the groups (214.53 grams ± 4.67; P > 0.05).
(§2) Groups 1 and 2 were not subjected to an exercise routine. Groups 3-8 were subjected to an exercise regimen consisting of a week training period with an incremental exercise capacity described below. After the week training period the exercise regimen followed was each rat in Groups 3-8 were subjected to 6 weeks of running at 25 m/min during 45 min […]. […] These correspond to 0, 250, 500, 1000, 2000 and 4000 mg per day for humans, respectively.
(§3) To determine the protein accumulation in the liver, muscle and lung samples, a Western Blotting test was used. Each of the tissue samples of the same group were pooled, homogenized, and sonicated in lysis buffer supplemented with 1X protease and phosphatase inhibitor cocktail (#5872, Cell Signaling). Total protein content was detected with Qubit 2.0 Fluorometer according to the manufacturer’s protocol (Invitrogen, Life Technologies Corporation, Carlsbad, CA, USA). […] Protein levels were analyzed densitometrically using an image analysis system (Image J; National Institute of Health, Bethesda, MD, USA), corrected with values determined on β-actin blots and expressed as relative values compared with the control group. […]

TMPRSS2 [2] = assay: TMPRSS2 mRNA expression in Calu-3, RT real-time PCR; assay type: cell-based, human; conditions: 24 hr
Procedure: To quantify the human gene expression, Calu-3 seeded in a 12-well plate (220,000 cells) were stimulated with 100 uM, 500 uM and 1000 uM Carnitine alone for 24 h. RNA was extracted using TRIzol (Qiagen) as per standard protocol and total RNA was reverse transcribed using SuperScript II RT (Invitrogen). Expression levels of ACE-2 and TMPRSS2 were evaluated by SYBR real-time PCR using gene-specific primers as previously reported (Ma et al., Eye 2020;34:1212). GAPDH was used as an internal normalizer. […] Fold change in expression relative to that in untreated cells was determined using the standard ddCt method.

SARS-CoV-2 = assay: microbe, parasite or virus in culture; assay type: cell-based
ACE-2 = assay: Human study, serum ELISA, ACE-2; assay type: in vivo
Procedure: A human study was run with a total of 80 healthy male and female subjects ranging from 21 to 65 years of age, who were active (i.e. 30 minutes per day of moderate activity, 3 days per week) are randomized into two groups. […] Seventy-three subjects completed the trial and biomarker data were analyzed from the sera of the 73 completers. Sera were collected for analysis of C-Reactive Protein (CRP), ACE 1, ACE 2, TMPRSS 2, the Tumor Necrosis Factor alpha (TNF-alpha), and Furin at baseline in the beginning of the trial, at week 5 and 48 hr after an exercise challenge as described (Clinicaltrials.gov NCT04420377). The exercise challenge serves as surrogate to the inflammation stimulus.
To obtain human sera, venous blood was extracted by venipuncture of the antecubital vein using a 21-gauge syringe and collected into a 10 mL EDTA vacutainer tube (BD Vacutainer®, Becton, Dickinson and Company, Franklin Lakes, NJ) by a certified phlebotomist. […] Human ACE-1, ACE-2, TMPRSS2, Furin, CRP and TNF-alpha protein levels were assessed using commercially available ELISA kits, according the manufacturer recommendations, ACE-1 (R&D systems Inc., Minneapolis, MN, USA), ACE-2 (RayBiotech inc., Peachtree Corners, GA), TMPRSS2 (Novus Biologicals, Littleton, CO), CRP (R&D Systems Inc., Minneapolis, MN), TNF-alpha (Novus Biologicals, Littleton, CO), and Furin (Sigma Aldrich, St. Louis, MO). […]

Furin = Furin protein and mRNA in rat tissue samples; assay type: in vivo; conditions: exercised rats
Excerpt: as §1, §2, §3

[3] = tissues, versus exercise control

C[N+](C)(C)C[C@H](O)CC(=O)[O-] [L-carnitine]
TMPRSS2 mRNA levels (TMPRSS2 [1]; [3]): dose-dependent decrease | TMPRSS2 protein level (TMPRSS2 [1]; western blotting): return to the baseline control | TMPRSS2 mRNA decrease (TMPRSS2 [2]; Calu-3, 500 uM): at least 75% | TMPRSS2 mRNA increase (TMPRSS2 [2]; Calu-3, between 50-100 uM): 1.5-4 fold | virus growth (plaque assay) (SARS-CoV-2): successful at inhibiting virus growth | IC50 (SARS-CoV-2; Severe acute respiratory syndrome coronavirus 2, Calu-3, read-out: IC50, inhibition of Calu-3 infection): 139 µM | ACE-2 serum levels (ACE-2; 2 g daily, 5 weeks, 48 hours after exercise challenge, versus placebo): significant decrease | decrease in ACE-2 (ACE-2; group A, from baseline compared to Wk5, p=0.046): 8% | Furin mRNA levels (Furin; [3]): dose-dependent decrease | Furin protein level (Furin; western blotting): return to the baseline control
